Data from the NIST ThermoML archive (doi:10.1016/j.jct.2016.12.019).

Legend:
[1] = 100 kPa, Liquid; for viscosity: Capillary tube (Ostwald / Ubbelohde) method; for speed of sound: Frequency=2 MHz, Linear variable-path acoustic interferometer; for mass density: Vibrating tube method
[2] = xn = mol fraction of the nth substance listed; conditions: 100 kPa, Liquid, x2 = 0; for viscosity: Capillary tube (Ostwald / Ubbelohde) method; for speed of sound: Frequency=2 MHz, Linear variable-path acoustic interferometer; for mass density: Vibrating tube method

CCCCCCCCCO [nonan-1-ol]
[1]
Conditions	mass density [kg/m3]	speed of sound [m/s]	viscosity [mPa·s]
303.15 K	821.36	1357	7.809
308.15 K	817.54	1334	6.499
313.15 K	814.05	1313	5.665
318.15 K	808.97	1293.5	4.676

CCCCCCCCCCO [decan-1-ol] + CCN(CC)c1ccccc1
[2]
Conditions	mass density [kg/m3]	speed of sound [m/s]	viscosity [mPa·s]
303.15 K	822.89	1363.5	9.751
308.15 K	819.54	1344.2	8.138
313.15 K	815.95	1328.5	6.846
318.15 K	811.35	1320.5	5.879

CCN(CC)c1ccccc1 [N,N-diethylaniline]
[1]
Conditions	mass density [kg/m3]	speed of sound [m/s]	viscosity [mPa·s]
303.15 K	925.8	1432	1.711
308.15 K	921.8	1416	1.537
313.15 K	917.9	1398	1.4
318.15 K	913.8	1378	1.276

CCCCCCCCO [octan-1-ol] + CCN(CC)c1ccccc1
[2]
Conditions	mass density [kg/m3]	speed of sound [m/s]	viscosity [mPa·s]
303.15 K	818.25	1333.5	6.405
308.15 K	814.72	1312.5	5.422
313.15 K	810.07	1295.4	4.625
318.15 K	805.52	1282.5	4.051

CCCCCCCCCO [nonan-1-ol] + CCN(CC)c1ccccc1
[2]
Conditions	mass density [kg/m3]	speed of sound [m/s]	viscosity [mPa·s]
303.15 K	821.36	1357	7.809
308.15 K	817.54	1334	6.499
313.15 K	814.05	1313	5.665
318.15 K	808.97	1293.5	4.676
